Calls of active or inactive are those of the source. The rule behind the calls is not given here.
The compounds below were run against Voltage-dependent N-type calcium channel subunit alpha-1B (Rattus norvegicus) (UniProt Q02294) (assay: (§1) Inhibition of rat neuronal Cav2.2 channel).
Voltage-dependent N-type calcium channel subunit alpha-1B (Rattus norvegicus), sequence (Q02294 whole entry, looked up): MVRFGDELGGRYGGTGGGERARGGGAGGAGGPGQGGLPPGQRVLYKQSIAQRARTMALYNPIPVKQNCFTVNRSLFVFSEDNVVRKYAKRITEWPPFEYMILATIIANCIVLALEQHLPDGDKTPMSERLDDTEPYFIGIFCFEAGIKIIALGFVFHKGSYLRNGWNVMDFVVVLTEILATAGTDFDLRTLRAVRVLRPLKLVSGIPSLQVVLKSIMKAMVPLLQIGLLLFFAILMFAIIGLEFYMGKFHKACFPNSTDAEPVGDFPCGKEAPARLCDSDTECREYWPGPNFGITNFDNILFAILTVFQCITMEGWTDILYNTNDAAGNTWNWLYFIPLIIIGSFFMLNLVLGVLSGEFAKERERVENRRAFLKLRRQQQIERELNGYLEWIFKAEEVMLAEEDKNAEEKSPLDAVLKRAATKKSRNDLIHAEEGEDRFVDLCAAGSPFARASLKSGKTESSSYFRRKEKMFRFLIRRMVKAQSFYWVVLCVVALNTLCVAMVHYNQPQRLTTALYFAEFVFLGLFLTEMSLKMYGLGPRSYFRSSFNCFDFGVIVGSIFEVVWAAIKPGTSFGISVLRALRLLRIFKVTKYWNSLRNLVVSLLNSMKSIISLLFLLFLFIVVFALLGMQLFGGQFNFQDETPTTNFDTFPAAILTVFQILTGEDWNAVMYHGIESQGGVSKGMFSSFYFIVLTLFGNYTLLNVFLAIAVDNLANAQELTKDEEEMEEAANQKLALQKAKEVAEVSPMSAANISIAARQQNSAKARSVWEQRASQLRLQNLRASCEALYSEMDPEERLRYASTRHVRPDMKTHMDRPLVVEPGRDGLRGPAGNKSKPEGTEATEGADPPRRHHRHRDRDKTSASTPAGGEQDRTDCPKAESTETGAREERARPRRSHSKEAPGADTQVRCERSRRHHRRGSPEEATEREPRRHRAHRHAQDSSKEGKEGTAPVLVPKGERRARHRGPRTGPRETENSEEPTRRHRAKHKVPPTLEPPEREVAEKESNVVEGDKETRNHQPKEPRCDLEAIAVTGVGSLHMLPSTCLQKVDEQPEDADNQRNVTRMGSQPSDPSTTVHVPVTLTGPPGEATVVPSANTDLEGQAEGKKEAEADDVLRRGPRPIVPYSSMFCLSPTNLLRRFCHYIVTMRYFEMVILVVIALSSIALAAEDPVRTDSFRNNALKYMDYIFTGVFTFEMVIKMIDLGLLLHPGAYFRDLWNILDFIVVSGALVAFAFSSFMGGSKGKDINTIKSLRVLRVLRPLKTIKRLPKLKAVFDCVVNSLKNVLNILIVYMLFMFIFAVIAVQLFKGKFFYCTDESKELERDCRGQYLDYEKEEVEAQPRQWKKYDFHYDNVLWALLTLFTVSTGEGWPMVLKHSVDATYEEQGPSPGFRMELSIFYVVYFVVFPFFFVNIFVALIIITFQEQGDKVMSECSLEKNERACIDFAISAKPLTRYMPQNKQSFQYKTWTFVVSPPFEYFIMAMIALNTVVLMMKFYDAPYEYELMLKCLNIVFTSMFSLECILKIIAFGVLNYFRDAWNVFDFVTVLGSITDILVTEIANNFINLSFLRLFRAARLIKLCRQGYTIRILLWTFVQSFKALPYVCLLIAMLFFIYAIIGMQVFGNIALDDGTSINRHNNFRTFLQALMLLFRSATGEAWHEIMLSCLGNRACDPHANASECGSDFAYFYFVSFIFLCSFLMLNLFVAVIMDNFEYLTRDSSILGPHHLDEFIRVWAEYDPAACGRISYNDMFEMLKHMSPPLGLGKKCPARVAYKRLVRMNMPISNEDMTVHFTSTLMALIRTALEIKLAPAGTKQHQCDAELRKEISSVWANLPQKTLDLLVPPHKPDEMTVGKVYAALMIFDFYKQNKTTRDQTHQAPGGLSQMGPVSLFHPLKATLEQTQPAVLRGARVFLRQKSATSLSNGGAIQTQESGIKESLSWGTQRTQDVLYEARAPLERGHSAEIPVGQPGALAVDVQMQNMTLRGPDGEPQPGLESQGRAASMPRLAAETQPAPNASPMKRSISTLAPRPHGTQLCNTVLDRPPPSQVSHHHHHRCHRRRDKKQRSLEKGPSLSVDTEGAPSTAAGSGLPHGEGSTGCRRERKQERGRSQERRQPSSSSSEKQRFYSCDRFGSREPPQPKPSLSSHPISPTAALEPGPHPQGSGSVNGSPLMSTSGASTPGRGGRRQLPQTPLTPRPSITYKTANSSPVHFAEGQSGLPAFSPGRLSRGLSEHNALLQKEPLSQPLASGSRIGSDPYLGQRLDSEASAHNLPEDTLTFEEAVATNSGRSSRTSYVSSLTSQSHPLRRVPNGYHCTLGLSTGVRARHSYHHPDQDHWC

For ClCCCOc1ccc(CNc2nc3ccc(Oc4ccccc4)cc3s2)cc1, the Activity was “inactive”.
[N-]=[N+]=NCCCOc1ccc(CNc2nc3ccc(Oc4ccccc4)cc3s2)cc1 was tested, and the Activity was “inactive”.
With Oc1ccc(CNc2nc3ccc(Oc4ccccc4)cc3s2)cc1 the Activity was “inactive”.
In the case of CC(C)(C)OC(=O)NCCCOc1ccc(CNc2nc3ccc(Oc4ccccc4)cc3s2)cc1, the Activity is reported as “inactive”.

These compounds were tested against Voltage-dependent N-type calcium channel subunit alpha-1B (Rattus norvegicus, UniProt Q02294) (assay: as §1).
Voltage-dependent N-type calcium channel subunit alpha-1B, sequence (Q02294 whole entry): as the sequence (Q02294 whole entry, looked up) above

First: NC(N)=NCCCOc1ccc(CNc2nc3ccc(Oc4ccccc4)cc3s2)cc1
Second: NCCCOc1ccc(CNc2nc3ccc(Oc4ccccc4)cc3s2)cc1
The EC50 of the first is 13-fold lower: 5.8 µM for the first, 76 µM for the second.

Compared with NCCCOc1ccccc1C(=O)N(Cc1ccc(OCCCN=C(N)N)cc1)c1nc2ccc(Oc3ccc(O)cc3)cc2s1, NCCCOc1ccc(CN(C(=O)c2ccccc2OCCCN)c2nc3ccc(Oc4ccc(O)cc4)cc3s2)cc1 is 1.8-fold higher in EC50: 1.78 µM for the first, 3.18 µM for the second. The first is the more potent here.

Compared with NCCCOc1ccccc1C(=O)Nc1nc2ccc(Oc3ccccc3)cc2s1, NC(N)=NCCCOc1ccccc1C(=O)Nc1nc2ccc(Oc3ccccc3)cc2s1 is lower in EC50: over 100 µM for the first, 33 µM for the second. The second is the more potent here.

First: NC(N)=NCCCOc1ccc(CNC(c2ccccc2)c2ccccc2)cc1
Second: NC(N)=NCCCOc1ccc(CNCC(c2ccccc2)c2ccccc2)cc1
The EC50 of the first is 1.9-fold higher: 23 µM for the first, 12 µM for the second. The second is the more potent here.

Going from NCCCOc1ccc(CNc2ccc(Oc3ccccc3)cc2)cc1 to NC(N)=NCCCOc1ccc(CNc2ccc(Oc3ccccc3)cc2)cc1, the EC50 falls from 34 µM to 21 µM (1.6-fold).

NCCCOc1ccc(CNC(c2ccccc2)c2ccccc2)cc1 and NCCCOc1ccc(CNCC(c2ccccc2)c2ccccc2)cc1 cannot be ordered by EC50: over 100 µM for the first, over 100 µM for the second.

Compound NCCCOc1ccccc1C(=O)N(Cc1ccc(OCCCN=C(N)N)cc1)c1nc2ccc(Oc3ccccc3)cc2s1 has an EC50 of 3.08 µM.
